Like-named read-outs stand apart in the source and are kept apart here.
Columns and labels:
[1] = tested on: human bronchial epithelial (16HBE) cells; assay: Cellular ROS/Superoxide Detection Assay in silver-exposed cells; type: cell-based
Method: Cellular ROS and superoxide levels were measured in 16HBE cells using a Cellular ROS/Superoxide Detection Assay Kit according to manufacturer's recommended protocol. Briefly, cells were seeded at a density of 25,000 cells/well in a black wall/clear bottom 96-well plate and incubated for 24 h as described above. Next, the feeding media was aspirated and cells were incubated with fresh media supplemented with or without 10 mM NAC for 2 h. […] Upon staining, the fluorescence signal from the two fluorescent dyes, green signal from ROS detection probe (Ex/Em=490/525 nm) and orange signal from superoxide detection probe (Ex/Em=550/620 nm), were quantified using a BioTek Instruments Cytation 5 Multimode Reader at 0, 4, 6, 8, and 24 h. […] All experiments were performed with 6 technical replicates and a minimum of 2 biological replicates.

16HBE cells [2] = assay: Glucose/lactate (BioProfile analyzer) and metabolite pool size and labeling (GC-MS); type: cell-based, human
Method: Analysis of total metabolite pool size and metabolite labeling patterns using Gas Chromatography-Mass Spectroscopy. 16HBE cells were seeded at a density of 250,000 cells per dish in a 60 mm cell culture dish and incubated until they reached 90% confluency. During this period, feeding media was replaced every 48 h. Once confluent, the media was aspirated, cells were washed with 1× PBS, and incubated with 2 mL 0 or 10 mM NAC for 2 h. […] At 8 h, the feeding medium from each plate was collected, centrifuged at 1000 rpm for 5 min to remove any cell debris, and frozen at −80° C., until further analysis. The cells were washed twice with 1× PBS, re-suspended by gentle scraping in 1 mL chilled 50% methanol solution, cell lysate collected in centrifuge tubes, flash frozen using liquid nitrogen, and stored at −80° C. till analysis.
MEM and stock solution of 4 mM GLN-10 mM D-[U^13C]-GLC medium treated in an identical manner were used as controls.
Cell suspensions frozen in 50% methanol were thawed and subjected to three additional freeze-thaw cycles using liquid nitrogen and a water bath. Subsequently, the cell suspensions were centrifuged at 14,000 rpm for 10 min to remove cell debris, and the supernatants were transferred to individually labeled glass drying tubes. 10 μl of an internal standard (50 nmols of sodium 2-oxobutyrate) was added to each tube at this time, and the samples were air-dried on a heat block. The dried samples were derivatized by addition of 100 μl of Tri-sil HTP reagent (Thermo Scientific) to each tube, capping the tube, vortexing the samples, and placing them on the heat block for an additional 30 min. The derivatized samples were transferred to auto-injector vials and analyzed using gas chromatography-mass spectroscopy (GC-MS; Agilent Technologies, Santa Clara, Calif.). Separately, the cell pellets with residual cell lysate was collected, contents thoroughly mixed with 200 μL 0.1 N sodium hydroxide, and heated to 100° C. to extract and solubilize the proteins. The samples were cooled and analyzed using a standard BCA assay to quantify the protein content. All metabolite concentrations determined using the BioProfile Basic-4 analyzer (NOVA) and GC-MS were normalized with the protein content.

16HBE cells [3] = assay: ATP content (ATP determination kit); type: cell-based, human; details: 10 mM NAC pre-incubation, silver acetate 8 h, vs cells exposed to silver alone
Method: 50,000 16HBE cells were seeded in each well of a 96-well plate and the cells were allowed to attach. At 24 h, media was aspirated, and cells were pre-incubated with 80 μL of 0 or 10 mM concentrations of NAC for 2 h. […] Finally, the cell lysate was collected and the ATP concentration determined and correlated to an established standard curve. Briefly, a standard reaction mixture consisting of molecular grade water, reaction buffer, Dithiothreitol (DTT) solution, D-luciferin, and firefly luciferase at manufacturer recommended concentrations was prepared. Next, 10 μL of standard ATP solution or cell lysate was mixed with 90 μL standard reaction mixture in a 96-well white bottom plate and luminescence was measured at 560 nm. Background luminescence was subtracted from all readings and the data were normalized to drug free controls.

16HBE cells [4] = tested on: 16HBE cells
Method: Cells were seeded at a density of 25,000 cells/well in a 96-well plate and incubated overnight as described above. […] ALAMARBLUE® test reagent was added to each well, and the plates were incubated as described above. At 8-hour and 24-hour timepoints, absorbance was measured at 570 and 600 nm, normalized to media only controls, and analyzed per manufacturer's instructions. All experiments were performed with 6 technical replicates and 3 biological replicates.
Statistics. All data were analyzed using GraphPad Prism 7 (GraphPad Software, Inc., La Jolla, Calif.). […] Additionally, non-linear regression was used to deduce the lethal dose at median cell viability (LD50) for cell viability assays.

[5] = tested on: 31 P. aeruginosa isolates; assay: MIC90/MBC90 over expanded isolate panel; type: cell-based, Pseudomonas aeruginosa
[6] = Total Antioxidant Capacity Assay (Trolox standard curve, Cu+2 probe); details: 10 mM antioxidant, compared with trolox
Method: Activity of antioxidants. […] A standard curve correlating the Trolox concentration to the antioxidant capacity was generated according to manufacturer's protocol. […] Two million 16HBE cells were seeded into each well of a 12-well plate and incubated overnight as described above. […] Finally, the insoluble cell debris was removed by centrifugation and the supernatant analyzed as described above to determine the total antioxidant capacity. All experiments were performed with 4 technical replicates and two biological replicates.

[7] = 50 μg/mL silver acetate after 10 mM antioxidant pre-incubation

| MIC90 ([5]; concentration required to inhibit 90% of 31 P. aeruginosa isolates) | Structure (SMILES) | effect of NAC pre-incubation itself on superoxide levels [1] | superoxide levels ([1]; 10 mM NAC pre-incubation, 10, 20, and 50 μg/mL silver acetate, 8 and 24 hours) | ROS levels ([1]; 10 mM NAC pre-incubation, silver acetate higher than 20 μg/mL, 8 and 24 hours) | superoxide levels ([1]; NAC pre-incubation, 100 μg/mL silver acetate, 8 hours) | superoxide levels ([1]; NAC pre-incubation, 100 μg/mL silver acetate, 24 hours) | ROS induced by NAC pre-incubation itself ([1]; subsides after 8 hours) | lactate levels (GC-MS) (16HBE cells [2]; NAC pre-incubated cells, 50 μg/mL silver acetate only) | citrate, glutamate, fumarate, and malate levels (16HBE cells [2]; NAC pre-incubated cells, 30, 40, 50, and 75 μg/mL silver acetate) | aspartate levels (16HBE cells [2]; NAC pre-incubated cells, 50 and 75 μg/mL silver acetate) | glucose consumption and lactate production (16HBE cells [2]; cells pre-treated with 0 vs 10 mM NAC) | labeling patterns of key metabolites (16HBE cells [2]; pre-incubation with NAC) | ATP production (16HBE cells [3]) | cell survival (16HBE cells [4]; [7]) | MBC90 ([5]; concentration required to eradicate 90% of 31 P. aeruginosa isolates) | antioxidant capacity, trolox equivalent [6] | cell survival (16HBE cells [4]; 7.5 and 10 mM ascorbic acid pre-incubation, up to 100 μg/mL silver acetate) |
| --- | --- | --- | --- | --- | --- | --- | --- | --- | --- | --- | --- | --- | --- | --- | --- | --- | --- |
|  | CC(=O)N[C@@H](CS)C(=O)O [NAC, N-acetyl cysteine] | no effect | significantly (p≤0.001) lower | significantly (p≤0.001) lower | significantly (p≤0.01) lower | not at 24 hours | initially induces ROS | significantly higher | significantly (p≤0.05) higher | significantly (p≤0.05) higher | No significant difference | does not appreciably alter | significantly higher | 86% |  |  |  |
| 4 µg/mL | CC(C)Cc1ccc(C(C)C(=O)O)cc1.[Ag] (stereo not drawn) [Silver Ibuprofen, silver salt of ibuprofen] |  |  |  |  |  |  |  |  |  |  |  |  |  | 4 µg/mL |  |  |
|  | O=C1O[C@H]([C@@H](O)CO)C(O)=C1O [Ascorbic Acid, ascorbic acid] |  |  |  |  |  |  |  |  |  |  |  |  | 22% |  | 40 fold | significantly (p<0.05) higher |

— US20220183994A1, “DELIVERY DEVICES FOR LOCALIZED DELIVERY OF ANTIMICROBIAL, ANTI-INFLAMMATORY, AND ANTIOXIDANT AGENTS” (priority 2019, published 2022)
